Test results as given in patent publication US8637681B2, “Pyrrolyl substituted dihydroindol-2-one derivatives, preparation methods and uses thereof” (Qilu Pharmaceutical Co., Ltd., priority 2010, dated 2014).

What was measured:
[1] = system: arterial ring angiogenesis in rats; assay: Inhibitory actions on arterial ring angiogenesis in rats; format: cell-based; conditions: Rattus norvegicus, area covered by micrangiums vs control well, read-out: Inhibitory rate (%); for inhibition at 0.2 µg/mL: 0.2 μg/ml; for inhibition at 1 µg/mL: 1 μg/ml; for inhibition at 5 µg/mL: 5 μg/ml
Summary of the method: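 Rat thoracic aorta cut into 1 mm rings, embedded in Matrigel and cultured at 37 °C with compound; medium and drug renewed every 3 days. Microvessel sprouting area imaged by microscopy; inhibition (%) = (control area − drug area)/control area × 100.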

[2] = Cytotoxicity test (SRB), A549; format: cell-based; conditions: human, A549 non-small cell lung cancer cells
Summary of the method: (§1)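 Cells seeded at 4000/well in DMEM with 10% FBS, adhered overnight, then treated 72 h at 37° C, 5% CO2 with compound (final DMSO 0.25%). TCA-fixed and stained with SRB, A540 read. IC50 (μM) calculated by Logit method.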

[3] = Cytotoxicity test (SRB), Hela; format: cell-based; conditions: human, Hela cervical cancer cells
Summary of the method: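 A549, Hela and A431 cells seeded at 4000/well, adhered overnight, then exposed to compound dilutions (final DMSO 0.25%) for 72 h at 37° C., 5% CO2. SRB read-out: absorbance at 540 nm; IC50 (μM) calculated by Logit method.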

[4] = Cytotoxicity test (SRB), A431; format: cell-based; conditions: human, A431 skin cancer cells
Summary of the method: as §1

[5] = system: human colon cancer HT 29 transplanted tumor; assay: Nude mice transplanted tumor test; format: in vivo, female Balb/cA nude mice; parameters: key to d21 Vave ± SD (average tumor volume): tumor volume TV = ½×a×b² (a, b = major, minor diameter), in mm³; conditions: for Dead animal number / inhibition in vivo at 80 mg/kg / d21 Wave ± SD (average bodyweight of nude mice) / d21 Vave ± SD (average tumor volume) / d21 RTV ± SD (relative tumor volume): 80 mg/kg intragastrically each day for 20 days; for Dead animal number: dead/total animals; for inhibition in vivo at 80 mg/kg: Mus musculus, HT-29, po, 504 h, (1−T/C)×100%, read-out: Tumor inhibition rate d21 (%); for inhibition in vivo at 80 mg/kg / d21 Wave ± SD (average bodyweight of nude mice) / d21 Vave ± SD (average tumor volume) / d21 RTV ± SD (relative tumor volume): d21; for d0 Wave ± SD (average bodyweight of nude mice): d0, at grouping before administration (baseline); for d21 Vave ± SD (average tumor volume): HT 29 in nude mice; for d21 RTV ± SD (relative tumor volume): RTV=Vt/V0
Summary of the method: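 Female Balb/cA nude mice bearing HT 29 colon tumour fragments in the right axilla, grouped at about 120 mm^3, received 80 mg/kg intragastrically daily for 20 days; vehicle was water with 0.1% Tween 80. Tumour volume (½×a×b^2) measured 2-3 times weekly, expressed as relative tumour volume Vt/V0.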

[6] = system: three kinds of tumor cells (A549, Hela, A431); assay: Cytotoxicity test, summary over the three tumor cell lines; format: cell-based, human; conditions: compared with positive control Sunitinib
Method: Cytotoxicity of the compounds of the present invention was tested with human non-small cell lung cancer cells A549, human cervical cancer Hela cells, human skin cancer cells A431. The test was performed by referring to the method described by Rusnak et al (Rusnak D. W., et al., Cell Prolif., 2007, 40, 580-94).
In Dulbecco's Modified Eagle Medium (DMEM) comprising 10% fetal bovine serum, 2 mM glutamine and non-essential amino acids, cells were cultured at 37° C. in 5% CO2 cell incubator. Trypsin/ethylenediamine tetraacetic acid (EDTA) were used to harvest cells in cell culture bottle. The cells were added to a 96-well cell culture plate, 4000/well (0.1 ml medium), adhering wall overnight, 0.1 ml of the diluted solution of the compounds to be tested was added, the final concentration of DMSO was 0.25%. The cell culture plate was incubated at 37° C., 5% CO2 conditions for 72 h. The change of cellular morphology was observed under microscope, and then 50 μl of 50% (mass/volume) trichloroacetic acid (TCA) was added to each well to fix cells. The final concentration of TCA was 10%. It stood for 5 min, than was placed in 4° C. refrigerator for 1 h, the wells of the culture plate were washed with deionized water for 5 times to remove TCA, drained, dried in air until no wet trace was observed. 100 μl of 0.4% (mass/volume) SRB was added to each well, stood at room temperature for 10 min. The liquid in each well was discarded, and then the wells were washed with 1% acetic acid for 5 times, dried in air, extracted with 150 μl of 10 mM Tris base (trihydroxymethylaminomethane, pH 10.5). The absorption at a wavelength of 540 nm was measured. The IC50 (μM) of the compound was calculated using Logit method.

SMILES | inhibition at 0.2 µg/mL [1] | inhibition at 1 µg/mL [1] | inhibition at 5 µg/mL [1] | IC50 at 72 h [2] | IC50 at 72 h [3] | IC50 at 72 h [4] | Dead animal number [5] | inhibition in vivo at 80 mg/kg [5] | d0 Wave ± SD (average bodyweight of nude mice) [5] | d21 Wave ± SD (average bodyweight of nude mice) [5] | d21 Vave ± SD (average tumor volume) ([5]; in mm³ (unit assumed)) | d21 RTV ± SD (relative tumor volume) [5] | Cytotoxicity to tumor cells (in words) [6] | d21 Vave ± SD (average tumor volume) [5] | Activity of inhibiting HT-29 transplanted tumor in vivo (in words) ([5]; 80 mg/kg, compared with positive control Sunitinib)
Cc1[nH]c(/C=C2\C(=O)Nc3ccc(F)cc32)c(C)c1NC(=O)CCN1CCOCC1 [Compound 12, N-{5-[5-fluoro-2-oxo-1,2-dihydro-indol-(3Z)-ylidenemethyl]-2,4-dimethyl-1H-pyrrol-3-yl}-3-(morpholin-4-yl)propionamide] | 94% | 100% | 100% | > 30 µM | 4.75 µM | 7.59 µM | 0/6 | 79.8% | 17.2 ± 0.54 | 19.1 ± 0.57 | 197.9 ± 48.1 | 1.45 ± 0.37 | certain toxicity to some cells |  | 
CCN(CC)CCC(=O)Nc1c(C)[nH]c(/C=C2\C(=O)Nc3ccc(Br)cc32)c1C [Compound 3, N-{5-[5-bromo-2-oxo-1,2-dihydro-indol-(3Z)-ylidenemethyl]-2,4-dimethyl-1H-pyrrol-3-yl}-3-(N,N-diethylamino)propionamide] | 93% | 100% | 100% | > 30 µM | 5.08 µM | > 30 µM | 0/6 | 86.4% | 19.3 ± 0.41 | 17.3 ± 0.56 | 120.6 ± 40.2 | 0.98 ± 0.36 | certain toxicity to some cells |  | 
CCN(CC)CCS(=O)(=O)Nc1c(C)[nH]c(/C=C2\C(=O)Nc3ccc(F)cc32)c1C [Compound 9, N-{5-[5-fluoro-2-oxo-1,2-dihydro-indol-(3Z)-ylidenemethyl]-2,4-dimethyl-1H-pyrrol-3-yl}-2-(N,N-diethylamino)ethylsulfonamide] | 93% | 100% | 100% | > 30 µM | > 30 µM | 8.58 µM | 0/6 | 63% | 19.6 ± 0.25 | 21.4 ± 0.38 |  | 2.66 ± 0.69 | certain toxicity to some cells | 328.3 ± 45.4 | 
Cc1[nH]c(/C=C2\C(=O)Nc3ccc(F)cc32)c(C)c1NC(=O)CCN1CCCCC1 [Compound 13, N-{5-[5-fluoro-2-oxo-1,2-dihydro-indol-(3Z)-ylidenemethyl]-2,4-dimethyl-1H-pyrrol-3-yl}-3-(piperidin-1-yl)propionamide] | 93% | 100% | 100% | > 30 µM | > 30 µM | 8.69 µM | 0/6 | 71.1% | 19.1 ± 0.85 | 20.1 ± 0.88 | 253.8 ± 56.4 | 2.08 ± 0.59 | certain toxicity to some cells |  | 
CCN(CC)CC(=O)Nc1c(C)[nH]c(/C=C2\C(=O)Nc3ccc(F)cc32)c1C [Compound 20, N-{5-[5-fluoro-2-oxo-1,2-dihydro-indol-(3Z)-ylidenemethyl]-2,4-dimethyl-1H-pyrrol-3-yl}-2-(N,N-diethylamino)acetamide] | 98% | 100% | 100% | > 30 µM | 5.21 µM | > 30 µM | 0/6 | 89.4% | 19.6 ± 0.69 | 20.3 ± 0.63 | 93.5 ± 42.8 | 0.76 ± 0.32 | certain toxicity to some cells |  | inhibitory activity comparable to the positive control Sunitinib
